{"source": "PubChem BioAssay AID1845197", "about": "(Molecular Pharmacology Branch, DTP, NCI, 2023);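 note: spheroids exposed to compound for 7 days before measurement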;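 for viability, T/C: percent of vehicle control viability with 100% = DMSO-treated spheroids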", "tested_on": "349418-098-R tumor spheroid viability", "assay": "Anticancer human tumor 349418-098-R patient-derived lung adenocarcinoma cell line growth inhibition", "conditions": "spheroids with HUVEC and MSC; for IC50: curve of first compound; for viability, T/C: stronger effect = lower value", "description": "Multicellular complex tumor spheroid response to DNA repair inhibitors in combination with DNA-damaging drugs\nThis study explores the anticancer activities of DNA-damaging drugs and inhibitors of DNA damage repair, both as single agents and in combinations. Complex tumor spheroids comprised of malignant cells, endothelial cells and mesenchymal stem cells served as an in vitro model for human solid tumors. This model system incorporates physiologically relevant features and patient-derived or established malignant cell lines with clinically relevant genetic alterations from many tumor types. Twenty-six patient-derived or established malignant cell lines were evaluated representing sarcoma, melanoma, small cell lung cancer (SCLC), non-small cell lung cancer (NSCLC), as well as bladder, ovarian and pancreatic cancers. The concentration ranges selected for each drug and investigational agent were based upon clinically achievable concentrations if the clinical Cmax of the agent was known.\nCompounds. The drugs and compounds olaparib (NSC753686), talazoparib (NSC767125), berzosertib (NSC777718), elimusertib (NSC800525), nedisertib (NSC802822), VX-984 (NSC792969), AZD-1390 (NSC803789), temozolomide (NSC362856), topotecan (NSC609699), trabectedin (NSC813783), staurosporine (NSC755774), and gemcitabine (NSC613327) were obtained from the National Cancer Institute (NCI) Developmental Therapeutics Program Chemical Repository. The FDA-approved anticancer drug set is available from the Developmental Therapeutics Program at https://dtp.cancer.gov/organization/dscb/obtaining/available_plates.htm. […] The stock solutions were prepared in dimethyl sulfoxide (DMSO, Sigma-Aldrich, St. Louis, MO, cat. D2650) at 400-fold the tested concentration and stored at -70 degrees C. Prior to their use, the stock solutions were diluted in fresh medium and the final DMSO concentration in the assay was 0.25% (v/v). All drugs and investigational agents were tested over a range starting from a high concentration at or near the clinical Cmax and decreasing in half-log increments. If the clinical Cmax for an agent had not been determined, the highest concentration tested was 10 microM.\nCell Lines. The patient-derived cancer cell (PDC) lines: 156681-154-R-J1-PDC, 283228-195-R-J1-PDC, 287954-098-R-J1-PDC, 292921-168-R-J2-PDC, 349418-098-R-PDC, 425362-245-T-J1-PDC, 556581-035-R-J1-PDC, and BL0293-F563-PDC were received from the NCI Patient-Derived Models Repository (PDMR, https://pdmr.cancer.gov). The established cell lines HS-SY-2 (RRID:CVCL_8719), MPNST, and SYO-1 (RRID:CVCL_7146) were obtained from the Sloan Kettering Institute. The alveolar soft parts sarcoma cell line ASPS-1 (RRID:CVCL_S738) was established at the NCI and grown from internal seed stocks. The following established cell lines were purchased from the American Type Culture Collection (ATCC, Manassas, VA): G-401 (ATCC, cat. CRL-1441, RRID:CVCL_0270), SW982 (ATCC, cat. HTB-93, RRID:CVCL_1734), VA-ES-BJ (ATCC, cat. CRL-2138, RRID:CVCL_1785), NCI-H719 (ATCC, cat. CRL-5837, RRID:CVCL_1582), NCI-H196 (ATCC, cat. CRL-5823, RRID:CVCL_1509), NCI-H841 (ATCC, cat. CRL-5845, RRID:CVCL_1595), NCI-H1618 (ATCC, cat. CRL-5879, RRID:CVCL_1480), NCI-H1876 (ATCC, cat. CRL-5902, RRID:CVCL_1503), DMS 114 (ATCC, cat. CRL-2066; RRID:CVCL_1174), NCI-H211 (ATCC, cat. CRL-5824; RRID:CVCL_1529), and SW 1271 (ATCC, cat. CRL-2177, RRID:CVCL_1716). The small cell lung cancer cell line COR-L88 was purchased from Sigma-Aldrich (cat. 92031917-1VL, RRID:CVCL_1141). The non-small cell lung cancer cell lines NCI-H226 (RRID:CVCL_1544) and NCI-H322M (RRID:CVCL_1557) were established at the NCI and grown from internal seed stocks. Pooled donor human umbilical vein endothelial cells (HUVEC, Lonza, cat. CC-2519) and human mesenchymal stem cells (hMSC, Lonza, cat. PT-2501) were purchased from Lonza (Walkersville, MD).\nCell Culture. All cells were maintained in an incubator at 37 degrees C and 5% CO2 with 95% humidity. […]", "data": [{"smiles": "Cc1sc2c(c1C)C(c1ccc(Cl)cc1)=NC(CC(=O)Nc1ccc(O)cc1)c1nnc(C)n1-2", "note": "(stereo not given) + Cn1nnc2c(C(N)=O)ncn2c1=O", "values": [{"measurement": "IC50", "setting": "second compound 1 µM", "result": 143, "unit": "nM"}, {"measurement": "IC50", "setting": "second compound 3.16 µM", "result": 133, "unit": "nM"}, {"measurement": "IC50", "setting": "second compound 10 µM", "result": 129, "unit": "nM"}, {"measurement": "IC50", "setting": "second compound 31.6 µM", "result": 154, "unit": "nM"}, {"measurement": "IC50", "setting": "second compound 100 µM", "result": 129, "unit": "nM"}, {"measurement": "viability, T/C", "setting": "second compound 1 µM, first compound 0.00949 µM", "result": 99, "unit": "%"}, {"measurement": "viability, T/C", "setting": "second compound 1 µM, first compound 0.03 µM", "result": 102, "unit": "%"}, {"measurement": "viability, T/C", "setting": "second compound 1 µM, first compound 0.0949 µM", "result": 67.8, "unit": "%"}, {"measurement": "viability, T/C", "setting": "second compound 1 µM, first compound 0.3 µM", "result": 16.6, "unit": "%"}, {"measurement": "viability, T/C", "setting": "second compound 1 µM, first compound 0.949 µM", "result": 1.96, "unit": "%"}, {"measurement": "viability, T/C", "setting": "second compound 1 µM, first compound 3 µM", "result": 0.51, "unit": "%"}, {"measurement": "viability, T/C", "setting": "second compound 3.16 µM, first compound 0.00949 µM", "result": 99.2, "unit": "%"}, {"measurement": "viability, T/C", "setting": "second compound 3.16 µM, first compound 0.03 µM", "result": 105, "unit": "%"}, {"measurement": "viability, T/C", "setting": "second compound 3.16 µM, first compound 0.0949 µM", "result": 62.7, "unit": "%"}, {"measurement": "viability, T/C", "setting": "second compound 3.16 µM, first compound 0.3 µM", "result": 16.5, "unit": "%"}, {"measurement": "viability, T/C", "setting": "second compound 3.16 µM, first compound 0.949 µM", "result": 1.3, "unit": "%"}, {"measurement": "viability, T/C", "setting": "second compound 3.16 µM, first compound 3 µM", "result": 0.49, "unit": "%"}, {"measurement": "viability, T/C", "setting": "second compound 10 µM, first compound 0.00949 µM", "result": 99.2, "unit": "%"}, {"measurement": "viability, T/C", "setting": "second compound 10 µM, first compound 0.03 µM", "result": 102, "unit": "%"}, {"measurement": "viability, T/C", "setting": "second compound 10 µM, first compound 0.0949 µM", "result": 63.7, "unit": "%"}, {"measurement": "viability, T/C", "setting": "second compound 10 µM, first compound 0.3 µM", "result": 10.9, "unit": "%"}, {"measurement": "viability, T/C", "setting": "second compound 10 µM, first compound 0.949 µM", "result": 1.25, "unit": "%"}, {"measurement": "viability, T/C", "setting": "second compound 10 µM, first compound 3 µM", "result": 0.39, "unit": "%"}, {"measurement": "viability, T/C", "setting": "second compound 31.6 µM, first compound 0.00949 µM", "result": 103, "unit": "%"}, {"measurement": "viability, T/C", "setting": "second compound 31.6 µM, first compound 0.03 µM", "result": 103, "unit": "%"}, {"measurement": "viability, T/C", "setting": "second compound 31.6 µM, first compound 0.0949 µM", "result": 72.1, "unit": "%"}, {"measurement": "viability, T/C", "setting": "second compound 31.6 µM, first compound 0.3 µM", "result": 19.3, "unit": "%"}, {"measurement": "viability, T/C", "setting": "second compound 31.6 µM, first compound 0.949 µM", "result": 1.26, "unit": "%"}, {"measurement": "viability, T/C", "setting": "second compound 31.6 µM, first compound 3 µM", "result": 0.43, "unit": "%"}, {"measurement": "viability, T/C", "setting": "second compound 100 µM, first compound 0.00949 µM", "result": 106, "unit": "%"}, {"measurement": "viability, T/C", "setting": "second compound 100 µM, first compound 0.03 µM", "result": 105, "unit": "%"}, {"measurement": "viability, T/C", "setting": "second compound 100 µM, first compound 0.0949 µM", "result": 64.9, "unit": "%"}, {"measurement": "viability, T/C", "setting": "second compound 100 µM, first compound 0.3 µM", "result": 9.26, "unit": "%"}, {"measurement": "viability, T/C", "setting": "second compound 100 µM, first compound 0.949 µM", "result": 0.75, "unit": "%"}, {"measurement": "viability, T/C", "setting": "second compound 100 µM, first compound 3 µM", "result": 0.45, "unit": "%"}]}]}
